Results on 1 substance are retold here after patent EP1984014B1, “USE OF TPO PEPTIDE COMPOUNDS AND PHARMACEUTICAL COMPOSITIONS IN THE TREATMENT OF ANEMIA” (Janssen Pharmaceutica NV, priority 2006, dated 2007).

In test [1] the test system is mice treated with carboplatin. Description: Example 2: dosing seven days before and/or 1 hour after carboplatin, hematological parameters in mice. Format: in vivo, BALB/c mouse. On the procedure: (§1) The effects of PEGylated TPO Compound No. 1 on mice treated with carboplatin were observed. For all examples herein, a 10 mg/ml stock solution of PEGylated TPO Compound No. 1 was prepared in sterile saline. For mixing, the preparation was placed on a gyratory shaker for 15min. at 200 rpm. This method was used to dissolve PEGylated TPO Compound No. 1 without foaming. The stock was filtered using a GV Millex (0.22um) filter. Dosing solutions were then prepared from this stock using sterile saline. The stock and dosing solutions were prepared fresh on the day of use.
The possibility that PEGylated TPO Compound No. 1 may sensitize bone marrow hematopoietic stem cells of mice to the toxic effects of carboplatin treatment was examined. For this study, a dose of PEGylated TPO Compound No. 1 was administered to the mice seven days prior to the carboplatin dose or immediately after carboplatin treatment. An additional group was treated with PEGylated TPO Compound No. 1 both prior to and after carboplatin administration. The effect of these dosing regimens on hematological parameters was also observed.
The groups of mice were treated with either carboplatin or vehicle (Phosphate Buffered Saline, PBS) by ip administration on Days 7 and 8 as delineated below. The optimal dose of carboplatin used to induce thrombocytopenia in the BALB/c mouse strain was previously determined to be a fractionated total dose of 120mg/kg given as two consecutive daily injections (i.e., 2x60mg/kg). Seven days prior to the first carboplatin dose or one (1) hour after the second dose of carboplatin, groups of mice were treated with PEGylated TPO Compound No. 1 (300ug/kg) or vehicle (sterile saline, SS, preservative-free 0.9% sodium chloride) by IV (bolus) injection as delineated in Table 2. An additional group was treated with PEGylated TPO Compound No. 1 both before (Day 0) and after (Day 8, t=1h) the carboplatin dose. All dosing was performed on a per-weight basis (100ul/10g body weight).
On Days 14, 18, 22 and 26, five mice in each test group were weighed and then euthanised using CO2-asphyxiation and exsanguination via cardiac puncture. The blood samples were transferred to separate EDTA (lavender-top) microcontainers for hematological evaluation. Groups of control mice (5) were processed on Days 14 and 26. The data are presented graphically as group means + SEM.

The test system of test [2] is carboplatin treated mice. Briefly: Example 6: mechanistic study, increasing carboplatin doses, platelets, hematocrit, brain fibrinogen/fibrin histology. Format: in vivo. On the procedure:
as §1
For mechanistic studies, groups of mice were treated with vehicle or increasing amounts of carboplatin (i.e., 60, 70 or 80 mg/kg) for 2 consecutive days (Day -1 & Day 0). Approximately one hour following the second dose of carboplatin, groups of mice were treated with PEGylated TPO Compound No.1 (100ug/kg) or vehicle (sterile saline, SS, preservative-free 0.9% sodium chloride) by IV.(bolus) injection as delineated in Table 5.
On Day 15, the mice in all treatment groups were euthanised using CO2-asphyxiation and exsanguinations via cardiac puncture. The blood samples were transferred to separate EDTA (lavender-top) microtainers for hematologic evaluation. In addition, several organs (including the brains) of control mice and mice treated with 2x70 mg/kg carboplatin without and with co-treatment with PEGylated TPO Compound No.1 were isolated and processed for histological examination. Sections of these tissues were processed immunohistochemically for fibrinogen/fibrin.

For test [3], the target named is T1, human TPO receptor, c-mpl (hTPOr) (Homo sapiens, UniProt P40238).
T1 construct: expressed in transfected cells
T1 sequence (P40238 26-635): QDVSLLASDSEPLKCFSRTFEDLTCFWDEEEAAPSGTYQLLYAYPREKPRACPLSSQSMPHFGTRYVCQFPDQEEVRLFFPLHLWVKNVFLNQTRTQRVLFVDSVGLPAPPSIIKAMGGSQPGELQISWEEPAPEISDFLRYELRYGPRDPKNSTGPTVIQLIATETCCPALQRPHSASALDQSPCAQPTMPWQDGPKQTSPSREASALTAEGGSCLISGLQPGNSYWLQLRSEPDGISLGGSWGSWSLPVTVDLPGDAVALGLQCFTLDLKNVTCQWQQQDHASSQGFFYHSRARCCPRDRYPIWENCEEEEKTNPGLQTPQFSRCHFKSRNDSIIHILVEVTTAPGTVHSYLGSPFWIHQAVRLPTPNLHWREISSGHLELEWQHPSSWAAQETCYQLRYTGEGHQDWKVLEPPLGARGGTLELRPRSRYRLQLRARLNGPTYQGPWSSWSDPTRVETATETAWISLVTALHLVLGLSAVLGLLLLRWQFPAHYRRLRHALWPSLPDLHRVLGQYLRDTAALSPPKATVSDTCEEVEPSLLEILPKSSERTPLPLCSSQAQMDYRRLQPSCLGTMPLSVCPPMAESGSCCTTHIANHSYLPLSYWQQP
Description: Example 7: Baf/3 hTPOr fos/lux luciferase reporter assay (relative luminescent units). Format: cell-based. The source says: The activity of the peptide compounds can be determined using standard relative luminescent units assay techniques. The assay employs, e.g., murine cells engineered to stably express the human TPO receptor and a luciferase reporter construct driven by the fos promoter. The assay may be performed as follows: Serum deprived Baf/3 hTPOr fos/lux cells expressing the human TPO receptor, c-mpl (hTPOr), and a luciferase reporter construct are exposed to increasing concentrations of either rhTPO or peptide compound for approximately 18 hours. Cells are then incubated in a medium containing a luciferase substrate and the luminescence of the cells is measured using a luminometer.

By EC50 is commonly meant the concentration needed to bring the measured effect to its halfway point. Turning to “Methoxypolyethyleneglycol20000-propionyl-L-Isoleucyl-L-Glutamyl-Glycyl-L-Prolyl-L-Threonyl-L-Leucyl-L-Arginyl-L-Glutaminyl-L-2-Naphthylalanyl-L-Leucyl-L-Alanyl-L-Alanyl-L-Arginyl-Sarcosyl-Ne-(methoxypolyethyleneglycol20000-propionyl-L-Isoleucyl-L-Glutamyl-Glycyl-L-Prolyl-L-Threonyl-L-Leucyl-L-Arginyl-L-Glutaminyl-L-2-Naphthylalanyl-L-Leucyl-L-Alanyl-L-Alanyl-L-Arginyl-Sarcosyl-)-Lysinamide [PEGylated TPO Compound No. 1]”, the “carboplatin-induced changes in erythrocyte parameters” value in test [1] (300ug/kg iv on Day 0 (only), seven days prior to carboplatin) is “failed to affect”. Also, the “decreases in hemoglobin levels, RBC counts and hematocrits caused by carboplatin” value in test [1] (300ug/kg iv on Day 8 (1 hour after the second carboplatin treatment) only) and in test [1] (300ug/kg iv on Day 8 with an additional dose on Day 0) was “prevented” in each case. Further, in test [1] (co-treatment, all regimens, no statistical analysis), the “body weight loss between Days 7 and 26” value is recorded as “prevented this weight loss”. For the same substance, the “onset of signs (hunching, unkempt)” value in test [1] (treatment on Day 8 without or with additional treatment on Day 0) is recorded as “appeared to delay the onset of these signs”. In addition, the “severity and duration of signs (hunching, unkempt)” value in test [1] (treatment on Days 0 and 8) was “decreased the severity and duration”. In test [2] (2x70mg/kg carboplatin plus 100ug/kg iv, Day 15), the “small vessels in brain sections, fibrinogen/fibrin staining” value was “appeared normal or exhibited fibrinogen/fibrin staining that was only slightly darker than the control group”. The “microthrombotic events in brain sections” value in test [2] (2x70mg/kg carboplatin plus 100ug/kg iv, entire dose group) is “single”. Further, in test [2] (2x80mg/kg carboplatin plus 100ug/kg iv, all of the mice), the survival result is recorded as “survived until the scheduled study termination”. For the same substance, the thrombocytopenia or anemia entry in test [2] (2x80mg/kg carboplatin plus 100ug/kg iv, on Day 15) is recorded as “did not exhibit thrombocytopenia or anemia”. Moreover, the “decreases in platelet and RBC counts induced by the carboplatin” value in test [2] (carboplatin 2x60 or 2x70mg/kg, 100ug/kg iv about one hour after second carboplatin dose, Day 15) is on record as “totally inhibited”. For the same substance, the “fibrinogen deposition and blood clots in brain sections” value in test [2] (carboplatin treated mice, FIG. 19) is “reduces”. For the same substance, the EC50 in test [3] (Baf/3 cells recombinantly expressing human TPO-R, approximately 18 hours) was around 5 pM. In test [3] (at the same concentration as TPO), the “activation of TPO-R compared with TPO” value is listed as “stronger activation”. The “activation of Baf/3 cells recombinantly expressing human TPO-R” value in test [3] (increasing concentrations) is “dose dependent”.
